Data: patent publication US11986471B2, “Compounds and methods of use” (Tango Therapeutics, Inc., priority 2018, dated 2024)

Assays:
PRMT5 [1] = target: T1, PRMT5 (Homo sapiens, UniProt O14744); assay: PRMT5 IC50 assay in the presence of SAM as cofactor; type: biochemical
T1 construct: purchased Viva (custom protein)
In short: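 Results given as IC50 (μM), from which Ki follows by dividing by 1.5 in the SAM condition or by 13.5 in the MTA condition. The ratio of SAM Ki to MTA Ki indicates MTA-cooperative preference.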

PRMT5 [2] = target: T1, PRMT5; assay: PRMT5 IC50 assay with no cofactor; type: biochemical; settings: read-out: No Co-factor IC50
In short: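 Three cofactor conditions tested for PRMT5 inhibition: none, MTA and SAM, each giving an IC50. For conversion to Ki, the MTA-condition IC50 is divided by 13.5 and the SAM-condition IC50 by 1.5, and the two Ki values are expressed as a SAM/MTA ratio.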

PRMT5 [3] = target: T1, PRMT5; assay: PRMT5 IC50 assay in the presence of MTA as cofactor; type: biochemical; settings: for IC50: PRMT5, MTA as cofactor; for SAM/MTA Ratio: ratio between Ki in the presence of SAM and Ki in the presence of MTA
In short: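 Potency against PRMT5 is compared across cofactor states, where IC50 equals Ki×1.5 with SAM present and Ki×13.5 with MTA present.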

HAP1 MTAP-intact = assay: SDMA in-cell western assay, HAP1 MTAP-intact cell line; type: cell-based; settings: Homo sapiens
In short: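 IC50 values come from SDMA in-cell western staining of HAP1 cells. The MTAP-intact line carries endogenous MTAP, while its MTAP-deleted counterpart lacks MTAP entirely. A selectivity ratio of at least 3 fold marks a compound as MTAP-selective.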

HAP1 MTAP-deleted = assay: SDMA in-cell western assay, HAP1 MTAP-deleted cell line; type: cell-based; settings: for IC50: Homo sapiens, HAP1 MTAP-deleted cell line; for MTAP Intact/Deleted Ratio: IC50 ratio HAP1 MTAP-intact / HAP1 MTAP-deleted
In short: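 Readout is cellular SDMA signal by in-cell western, with IC50 values derived from it. The cells are MTAP-null HAP1, matched to an isogenic MTAP-intact HAP1 line.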

T1 sequence (O14744 whole entry): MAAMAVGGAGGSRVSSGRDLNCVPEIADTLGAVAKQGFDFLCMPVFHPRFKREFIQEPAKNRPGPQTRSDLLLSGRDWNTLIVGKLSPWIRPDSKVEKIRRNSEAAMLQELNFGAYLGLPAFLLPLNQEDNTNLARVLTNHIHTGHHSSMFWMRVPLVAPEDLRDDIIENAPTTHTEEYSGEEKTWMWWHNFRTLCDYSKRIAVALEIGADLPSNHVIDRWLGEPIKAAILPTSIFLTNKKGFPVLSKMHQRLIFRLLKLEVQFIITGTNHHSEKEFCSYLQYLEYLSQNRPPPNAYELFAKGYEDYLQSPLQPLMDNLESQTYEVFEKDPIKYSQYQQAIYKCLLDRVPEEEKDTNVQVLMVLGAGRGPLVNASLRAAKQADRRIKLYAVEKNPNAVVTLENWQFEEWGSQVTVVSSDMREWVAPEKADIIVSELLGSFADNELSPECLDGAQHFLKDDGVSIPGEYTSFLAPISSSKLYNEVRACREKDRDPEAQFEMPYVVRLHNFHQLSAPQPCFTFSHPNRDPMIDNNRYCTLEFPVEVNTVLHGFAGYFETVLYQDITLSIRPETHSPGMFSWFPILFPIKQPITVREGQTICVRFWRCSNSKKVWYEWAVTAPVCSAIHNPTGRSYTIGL
T1 sequence (Q9BQA1 whole entry partner): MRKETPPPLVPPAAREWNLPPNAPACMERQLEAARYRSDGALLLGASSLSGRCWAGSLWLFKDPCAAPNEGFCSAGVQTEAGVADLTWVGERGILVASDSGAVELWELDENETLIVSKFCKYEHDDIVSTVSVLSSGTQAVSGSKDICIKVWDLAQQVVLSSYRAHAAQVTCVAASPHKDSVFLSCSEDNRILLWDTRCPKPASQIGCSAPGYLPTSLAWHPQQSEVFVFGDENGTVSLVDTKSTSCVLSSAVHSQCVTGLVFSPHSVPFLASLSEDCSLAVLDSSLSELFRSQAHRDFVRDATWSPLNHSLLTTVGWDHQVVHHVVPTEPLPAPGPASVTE

IC50 (PRMT5 [1]) [nM]	IC50 (PRMT5 [2]) [nM]	IC50 (PRMT5 [3]) [nM]	IC50 (HAP1 MTAP-intact) [nM]	IC50 (HAP1 MTAP-deleted) [nM]	SMILES	SAM/MTA Ratio (PRMT5 [3])	MTAP Intact/Deleted Ratio (HAP1 MTAP-deleted)
50 to 500	500 to 5000	50 to 500	1000 to 10000	< 1000	CCCN(C)c1cc(C(=O)NC[C@H](O)CN2CCc3cc(OCc4cnco4)ccc3C2)cc(NC2CCC2)n1 [Compound 415]	A (a Ki ratio greater than or equal to 10 fold between the Ki in the presence of SAM and the Ki in the presence of MTA)	C* (an IC50 ratio of less than 3 fold between the IC50 in the HAP1 MTAP-intact cell line and the HAP1 MTAP-deleted cell line)
50 to 500	500 to 5000	50 to 500	< 1000	< 1000	Cc1ncoc1COc1ccc2c(c1)CCN(C[C@@H](O)CNC(=O)c1ccc(OC3CCN(Cc4ccncc4)CC3)cc1)C2 [Compound 416, N-[(2S)-2-hydroxy-3-{6-[(4-methyl-1,3-oxazol-5-yl)methoxy]-1,2,3,4-tetrahydroisoquinolin-2-yl}propyl]-4-{[1-[(pyridin-4-yl)methyl]piperidin-4-yl}oxy)benzamide]	A (a Ki ratio greater than or equal to 10 fold between the Ki in the presence of SAM and the Ki in the presence of MTA)	C* (an IC50 ratio of less than 3 fold between the IC50 in the HAP1 MTAP-intact cell line and the HAP1 MTAP-deleted cell line)
50 to 500	500 to 5000	50 to 500	≥ 10000	< 1000	CCC(=O)N1CCN(c2cc(C(=O)NC[C@H](O)CN3CCc4c(ccc(OCc5ocnc5C)c4C)C3)cc(NC3CCC3)n2)CC1 [Compound 417, 2-(cyclobutylamino)-N-[(2S)-2-hydroxy-3-{5-methyl-6-[(4-methyl-1,3-oxazol-5-yl)methoxy]-1,2,3,4-tetrahydroisoquinolin-2-yl}propyl]-6-(4-propanoylpiperazin-1-yl)pyridine-4-carboxamide]	A (a Ki ratio greater than or equal to 10 fold between the Ki in the presence of SAM and the Ki in the presence of MTA)	A* (an IC50 ratio greater than or equal to 10 fold between the IC50 in the HAP1 MTAP-intact cell line and the HAP1 MTAP-deleted cell line)
50 to 500	≥ 5000	50 to 500	≥ 10000	1000 to 10000	Cc1ncoc1COc1ccc2c(c1C)CCN(C[C@@H](O)CNC(=O)c1ccnc(NC3CCCC3)c1)C2 [Compound 418, 2-(cyclopentylamino)-N-[(2S)-2-hydroxy-3-{5-methyl-6-[(4-methyl-1,3-oxazol-5-yl)methoxy]-1,2,3,4-tetrahydroisoquinolin-2-yl}propyl]pyridine-4-carboxamide]	A (a Ki ratio greater than or equal to 10 fold between the Ki in the presence of SAM and the Ki in the presence of MTA)	C* (an IC50 ratio of less than 3 fold between the IC50 in the HAP1 MTAP-intact cell line and the HAP1 MTAP-deleted cell line)
50 to 500	500 to 5000	50 to 500	≥ 10000	≥ 10000	CN1CCN(c2cc(C(=O)NC[C@H](O)CN3CCc4c(ccc(OCc5cnco5)c4Cl)C3)cc(NC3CCC3)n2)CC1 [Compound 419, (S)—N-(3-(5-chloro-6-(oxazol-5-ylmethoxy)-3N-dihydroisoquinolin-2(1H)-yl)-2-hydroxypropyl)-2-(cyclobutylamino)-6-(4-methylpiperazin-1-yl)isonicotinamide]	A (a Ki ratio greater than or equal to 10 fold between the Ki in the presence of SAM and the Ki in the presence of MTA)	C* (an IC50 ratio of less than 3 fold between the IC50 in the HAP1 MTAP-intact cell line and the HAP1 MTAP-deleted cell line)
50 to 500	500 to 5000	50 to 500	≥ 10000	≥ 10000	O=C(NC[C@H](O)CN1CCc2c(ccc(OCc3cnco3)c2Cl)C1)c1ccnc(NC2CCCCC2)c1 [Compound 420, (S)—N-(3-(5-chloro-6-(oxazol-5-ylmethoxy)-3N-dihydroisoquinolin-2(1H)-yl)-2-hydroxypropyl)-2-(cyclohexylamino)isonicotinamide]	A (a Ki ratio greater than or equal to 10 fold between the Ki in the presence of SAM and the Ki in the presence of MTA)	C* (an IC50 ratio of less than 3 fold between the IC50 in the HAP1 MTAP-intact cell line and the HAP1 MTAP-deleted cell line)
50 to 500	≥ 5000	50 to 500	≥ 10000	1000 to 10000	Cc1ncoc1COc1ccc2c(c1C)CCN(C[C@@H](O)CNC(=O)c1cc(NC3COC3)nc(N3CCN(C(=O)C(C)C)CC3)n1)C2 [Compound 421, N-[(2S)-2-hydroxy-3-{5-methyl-6-[(4-methyl-1,3-oxazol-5-yl)methoxy]-1,2,3,4-tetrahydroisoquinolin-2-yl}propyl]-2-[4-(2-methylpropanoyl)piperazin-1-yl]-6-[(oxetan-3-yl)amino]pyrimidine-4-carboxamide]	A (a Ki ratio greater than or equal to 10 fold between the Ki in the presence of SAM and the Ki in the presence of MTA)	B* (an IC50 ratio greater than or equal to 3 fold but lower than 10 fold between the IC50 in the HAP1 MTAP-intact cell line and the HAP1 MTAP-deleted cell line)

Further lines, the compound ahead of its results:

SMILES	IC50 (PRMT5 [1]) [nM]	IC50 (PRMT5 [2]) [nM]	IC50 (PRMT5 [3]) [nM]	IC50 (HAP1 MTAP-intact) [nM]	IC50 (HAP1 MTAP-deleted) [nM]	SAM/MTA Ratio (PRMT5 [3])	MTAP Intact/Deleted Ratio (HAP1 MTAP-deleted)
CCN1CCN(c2cc(C(=O)NC[C@H](O)CN3CCc4cc(OCc5ocnc5C)ccc4C3)cc(NC3CCC3)n2)CC1 [Compound 410, 2-(cyclobutylamino)-6-(4-ethylpiperazin-1-yl)-N-[(2S)-2-hydroxy-3-{6-[(4-methyl-1,3-oxazol-5-yl)methoxy]-1,2,3,4-tetrahydroisoquinolin-2-yl}propyl]pyridine-4-carboxamide]	50 to 500	500 to 5000	50 to 500	< 1000	< 1000	A (a Ki ratio greater than or equal to 10 fold between the Ki in the presence of SAM and the Ki in the presence of MTA)	B* (an IC50 ratio greater than or equal to 3 fold but lower than 10 fold between the IC50 in the HAP1 MTAP-intact cell line and the HAP1 MTAP-deleted cell line)
Cc1ncoc1COc1ccc2c(c1C)CCN(C[C@@H](O)CNC(=O)c1cc(NC3CCC3)nc(N3CCN(C(=O)C4CC4)CC3)c1)C2 [Compound 411, 2-(cyclobutylamino)-6-(4-cvclopropanecarbonylpiperazin-1-yl)-N-[(2S)-2-hydroxy-3-{5-methyl-6-[(4-methyl-1,3-oxazol-5-yl)methoxy]1,2,3,4-tetrahydroisoquinolin-2-yl}propyl]pyridine-4-carboxamide]	50 to 500	500 to 5000	50 to 500	≥ 10000	< 1000	A (a Ki ratio greater than or equal to 10 fold between the Ki in the presence of SAM and the Ki in the presence of MTA)	A* (an IC50 ratio greater than or equal to 10 fold between the IC50 in the HAP1 MTAP-intact cell line and the HAP1 MTAP-deleted cell line)
CC(=O)N1CCC(Nc2cc(C(=O)NC[C@H](O)CN3CCc4nc(OCc5cnco5)ccc4C3)ncn2)CC1 [Compound 412, 6-[(1-acetyl-4-piperidyl)amino]-N-[(2S)-2-hydroxy-3-[2-(oxazol-5-ylmethoxy)-7,8-dihydro-5H-1,6-naphthyridin-6-yl]propyl]pyrimidine-4-carboxamide]	500 to 5000	≥ 5000	50 to 500	≥ 10000	≥ 10000	A (a Ki ratio greater than or equal to 10 fold between the Ki in the presence of SAM and the Ki in the presence of MTA)	C* (an IC50 ratio of less than 3 fold between the IC50 in the HAP1 MTAP-intact cell line and the HAP1 MTAP-deleted cell line)
O=C(NC[C@H](O)CN1CCc2nc(OCc3cnco3)ccc2C1)c1ccnc(NC2CCC2)c1 [Compound 413, 2-(cyclobutylamino)-N-[(2S)-2-hydroxy-3-[2-(oxazol-5-ylmethoxy)-7,8-dihydro-5H-1,6-naphthyridin-6-yl]propyl]pyridine-4-carboxamide]	500 to 5000	≥ 5000	500 to 5000	≥ 10000	≥ 10000	A (a Ki ratio greater than or equal to 10 fold between the Ki in the presence of SAM and the Ki in the presence of MTA)	C* (an IC50 ratio of less than 3 fold between the IC50 in the HAP1 MTAP-intact cell line and the HAP1 MTAP-deleted cell line)
Cc1ncoc1COc1ccc2c(c1C)CCN(C[C@@H](O)CNC(=O)c1cc(NC3COC3)nc(N3CCN(C(=O)C4CC4)CC3)n1)C2 [Compound 414, 2-(4-cyclopropanecarbonylpiperazin-1-yl)-N-[(2S)-2-hydroxy-3-{5-methyl-6-[(4-methyl-1,3-oxazol-5-yl)methoxy]-1,2,3,4-tetrahydroisoquinolin-2-yl}propyl]-6-[(oxetan-3-yl)amino]pyrimidine-4-carboxamide]	50 to 500	≥ 5000	50 to 500	≥ 10000	< 1000	A (a Ki ratio greater than or equal to 10 fold between the Ki in the presence of SAM and the Ki in the presence of MTA)	A* (an IC50 ratio greater than or equal to 10 fold between the IC50 in the HAP1 MTAP-intact cell line and the HAP1 MTAP-deleted cell line)
